Assay results published in PMC12566971, “Polyprenylated Acylphloroglucinols from Hypericum rochelii and Hypericum olympicum—Cytotoxic Effects on Non-Tumorigenic Cell Lines and Antibacterial Potential” (Pharmaceuticals, 2025).

Tested on: CCL-1 and HGF cells
Assay: Western blot for autophagy proteins Atg5, Atg7, LC3A/B
Assay type: cell-based
Conditions: 24 h; erufosine 30 µM, HirDM90 IC50
Experimental: For Western blot, CCL-1 and HGF cell lines were chosen, and they were seeded in either 6-well plates or 55 mm Petri dishes suitable for cell culture. They were treated with an exposure time of 24 h in an incubator (Panasonic MCO-18AC, Panasonic Healthcare Ltd., […], Japan). […] Hans-Jörg Eibl. In addition, a higher concentration of an […] added to one of the tests for comparison. The samples were trypsinized, collected, washed with PBS (TS1101, HiMedia, Mumbai, India), centrifuged, and frozen at -80 °C if storage was necessary. Then they were lysed on ice with a buffer containing 100 mM Tris-HCl (648313, Sigma-Aldrich, St. Louis, MO, USA) at pH 8.0, 4% sodium dodecyl sulfate (SDS, […], Sigma-Aldrich), 20% glycerol (49779, Sigma-Aldrich), 1% Na3VO4 (450243, Sigma-Aldrich), 200 mM dithiothreitol (DTT, 3483-12-3, Sigma-Aldrich, Burlington, MA, USA) supplemented with protease inhibitor (05892970001, Roche). The cell lysate was heated to boiling for 15 min, then centrifuged at 13,000 rpm for 10 min at 4 °C. Lysates were subjected to denaturing SDS polyacrylamide gel electrophoresis on acrylamide 4-20% gradient Mini-PROTEAN® TGXTM Stain-Free gels (4568094, Bio-Rad Laboratories, Hercules, CA, USA). […] Densitometric calculation and analysis was performed with Quantity One software version 4.6.9 (Bio-Rad Laboratories).

CCCCCCCC/C=C\CCCCCCCCCCCCOP(=O)([O-])OCC[N+](C)(C)C [erufosine]
Conversion of LC3A/B to the lower migrating form: converted to the lower migrating form visibly
